Assay results from US20200390755A1, “COMPOUND FOR TREATING NERVOUS SYSTEM DISEASES AND USE THEREOF” (SHAANXI MICOT TECHNOLOGY CO., LTD., priority 2018, published 2020).

Key:
TrkB receptor = molecular target: T1, TrkB receptor (Mus musculus, UniProt P15209); assay: Western blotting of p-TrkB and t-TrkB in primary cortical neuron cells; type: cell-based; settings: 500 nM, 10 min at 37° C., Vehicle = 100, n = 3
T1 construct: The culture continued until the primary cortical neuron cells mature; endogenous in cells; host or cells: primary cortical neurons from E18 mouse embryos (N171-82Q WT male x B6C3F1/J female)
Description: (§1) N171-82Q WT male mice were mated with female B6C3F1/J hybrid mice. B6C3F1/J mice 18 days after pregnancy were anesthetized with isoflurane and dissected to remove embryos, which were then placed in a 10 cm Petri dish containing Leibovitz's buffer. The head of the embryo was cut off, and the brain was peeled off to obtain the whole mouse brain, which was then placed in a new 10 cm Petri dish containing Leibovitz's buffer. The neurocortex of the brain was separated and placed in a 15 mL centrifuge tube containing 3 mL Leibovitz's buffer. The centrifuge tube was centrifuged at 1000 rpm for 1 minute, and the Leibovitz's buffer was gently removed from the centrifuge tube, and then 750 μL of 0.25% trypsin-EDTA and 75 μL of 0.1% DNase (2000 U/mL) were added to digest at 37° C. for 15 min. 750 μL of DMEM medium containing 5% FBS was added to stop the digestion. The cells were mixed well, and centrifuged at 1000 rpm for 5 minutes. Trypins/DNase mixture was removed, and 750 μL of Neurobasal medium (B-27, Glutamax, P/S) was added. The cells were mixed by gently pipetting with a pipette for 30 times. The cell suspension was filtered with a 40 µm filter and transferred to another new 50 mL centrifuge tube. 10 μL of the cell suspension was added to 90 μL of DMEM (diluted 10 times), and 10 μL of the liquid mixture was placed on a hemocytometer so that the suspension filled between the cover slip and the counting plate for counting. The cells in the four large grids of the plate were counted, wherein for the cells across the line, only the cells on the left and upper side lines were counted. The following formulas were used:
(§2) Number of cells/mL=total number of cells in the four large grids/4×10^4/mL
(§3) Total number of cells/mL=total number of cells in the four large grids/4×10^4/mL×dilution factor.
(§4) After counting, the cells were diluted with Neurobasal selection medium so that 1 mL of Neurobasal culture medium contained 0.5×10^6 cells.
(§5) 200 μL of PDL solution previously heated in a 37° C. water bath was added to each well of a 6-well plate, and incubated at 37° C. overnight to allow PDL to evenly coat the well plate. The PDL solution was absorbed and the plate was washed twice with PBS. Before use, the PBS remaining on the plate was absorbed and the cover was opened to dry the plate in a super clean bench. 2 mL of cell suspension was added to each well (37° C., 5% CO2), and the cells were cultured until adherence. The culture medium was replaced and the culture continued for 3 days, and then the growth status of neurons was observed. Every other 3 days, half of the medium was removed and replaced with fresh complete medium. The culture continued until the primary cortical neuron cells mature (usually mature on the 14th day of culture).
(§6) After the primary cortical neuron cells have matured, appropriate amount of freshly prepared culture medium was added until final volume in each well was 2 mL. The experiment included a blank control group (Vehicle), a positive control group BDNF (10 ng/mL), a control compound group (500 nM), and 6 test compound groups (500 nM). Three repeats were set for each dose. After incubating at 37° C. for 10 min, the culture solution was discarded and the cells were washed with pre-chilled PBS, and then 40 μL of pre-chilled lysate (RIPA buffer 10 mL and protease and phosphatase inhibitor 100 μL) was added to each well for lysis on ice for 30 min. After lysis, the cell was crushed by ultrasonic cell crusher, centrifuged at 14000 rpm for 20 min at 4° C. The supernatant was transferred to a new 1.5 mL centrifuge tube to extract protein. Western blotting experiments were used to detect the protein levels of (A) p-TrkB and t-TrkB; (B) p-AKT and t-AKT.
(§7) The software Sigmaplot 13.0 was used for statistical analysis of the data, and the data of each group was expressed as mean±standard error (x±SEM). […]

AKT signaling pathway = assay: Western blotting of p-AKT and t-AKT in primary cortical neuron cells; type: cell-based, mouse; settings: 500 nM, 10 min at 37° C., Vehicle = 100, n = 3
Description: as §1, §2, §3, §4, §5, §6, §7

N171-82Q HD mice = assay: DARPP32 protein level in striatum by Western blotting, HD mice; type: in vivo, mouse; settings: 5 mg/kg/d until 25 weeks, WT Vehicle = 100, n = 3
Description: 7-week-old N171-82Q HD male mice were paired with female B6C3F1/J hybrid mice to obtain newborn mice. From 21 days of age, male mice were housed in separate cages. 0.5 cm of mouse tail tissue was removed to extract DNA to determine the genotype of the mouse, such that N171-82Q HD mice and WT mice needed for the experiment were obtained. The mice were randomly divided into WT Vehicle group (normal mice), WT test compound group (administration group of normal mice, 5 mg/kg/d, n=10), HD Vehicle group (blank group of HD mice, n=15), HD test compound group (administration groups 1-5 of HD mice, 5 mg/kg/d, n=10). The test compound was suspended in 1% CMC-Na solution and administered by intragastric administration until the end of the study. The weights of the mice were measured every week. Behavioral tests were performed at 12 weeks, 18 weeks, and 24 weeks of age to investigate motor function. At 20 weeks, 3 samples of tissue from each group were used for western blotting and immunohistochemistry. At 24 weeks, MRI scans were performed. At the end of the study, the effect of the test compound on the mortality of mice was evaluated.
Dopamine and cAMP-regulated phosphoprotein (DARPP-32), with a molecular weight of 32 kDa, is a basic component of dopamine signaling cascade. A pathological feature of HD is the massive loss of MSNs which can express high level of DARPP32, in the striatum. Therefore, DARPP32 can be used as a marker of nerve damage and nerve dysfunction in the HD model. After the behavioral evaluation of the mice in each experimental group was completed and the administration continued until 25 weeks, 3 mice were taken from each group to separate hippocampal tissue, striatum, and neurocortex tissue. The total protein in the striatum tissue was extracted, and the protein level of DARPP 32 was detected by Western blotting experiment.
The striatum tissue block was lysed in 100 μL of lysis buffer (RIPA buffer 10 mL, protease inhibitor 100 μL, phosphatase inhibitor 100 μL) on ice for 30 min, and then pulverized with an ultrasonic cell pulverizer, and then centrifuged at 14000 rpm for 20 min at 4° C. The supernatant was transferred to a new 1.5 mL centrifuge tube. The protein was extracted, and the protein level of DARPP 32 was detected by Western blotting.

T1 sequence (P15209 32-821): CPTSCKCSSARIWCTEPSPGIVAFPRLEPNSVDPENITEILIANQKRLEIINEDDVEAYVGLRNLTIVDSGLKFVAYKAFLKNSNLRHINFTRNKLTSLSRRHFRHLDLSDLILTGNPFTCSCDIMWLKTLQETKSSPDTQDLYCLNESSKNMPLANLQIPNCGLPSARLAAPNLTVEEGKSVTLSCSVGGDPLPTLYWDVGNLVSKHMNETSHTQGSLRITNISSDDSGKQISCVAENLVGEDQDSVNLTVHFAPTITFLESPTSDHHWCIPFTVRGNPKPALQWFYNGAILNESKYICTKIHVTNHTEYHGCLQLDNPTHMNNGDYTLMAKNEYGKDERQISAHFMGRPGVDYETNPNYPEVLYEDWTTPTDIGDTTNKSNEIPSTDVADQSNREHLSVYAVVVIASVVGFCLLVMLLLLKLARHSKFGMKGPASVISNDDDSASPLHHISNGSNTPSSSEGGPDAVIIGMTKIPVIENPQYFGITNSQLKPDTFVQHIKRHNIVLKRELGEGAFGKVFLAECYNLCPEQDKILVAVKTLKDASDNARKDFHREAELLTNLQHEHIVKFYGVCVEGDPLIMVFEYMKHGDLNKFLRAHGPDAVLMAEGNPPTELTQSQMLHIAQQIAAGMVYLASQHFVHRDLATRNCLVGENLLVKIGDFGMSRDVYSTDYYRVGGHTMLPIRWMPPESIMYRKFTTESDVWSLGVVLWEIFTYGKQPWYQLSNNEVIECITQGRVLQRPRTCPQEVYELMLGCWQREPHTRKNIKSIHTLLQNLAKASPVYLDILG

| Structure (SMILES) | Relative intensity of p-TrkB/t-TrkB protein (TrkB receptor) | Relative intensity of p-AKT/t-AKT protein (AKT signaling pathway) | Relative intensity of DARPP32 protein (N171-82Q HD mice) |
| --- | --- | --- | --- |
| O=c1cc(-c2ccc(N3CCCCC3)cc2)oc2c(O)c(O)ccc12 [Example 1, 7,8-dihydroxy-2-(4-(piperidin-1-yl)phenyl)-4H-chromen-4-one] | 216.727 ± 8.642 | 219.663 ± 8.085 | 96.971 ± 3.607 |
| COc1ccc2c(=O)cc(-c3ccc(N4CCCCC4)cc3)oc2c1OC [Example 2, 7,8-dimethoxy-2-(4-(piperidin-1-yl)phenyl)-4H-chromen-4-one] | 206.453 ± 7.574 | 209.651 ± 3.294 | 96.113 ± 2.681 |
| CN(C)C1CCN(c2ccc(-c3cc(=O)c4ccc(O)c(O)c4o3)cc2)CC1 [Example 3, 2-(4-(4-(dimethylamino)piperidin-1-yl)phenyl)-7,8-dihydroxy-4H-chromen-4-one] | 234.685 ± 14.695 | 240.213 ± 8.376 | 97.032 ± 3.887 |
| CC1(C)CCN(c2ccc(-c3cc(=O)c4ccc(O)c(O)c4o3)cc2)CC1 [Example 4, 2-(4-(4,4-dimethylpiperidin-1-yl)phenyl)-7,8-dihydroxy-4H-chromen-4-one] | 216.198 ± 8.865 | 215.698 ± 5.487 | 97.348 ± 3.438 |
| CC1CC(C)CN(c2ccc(-c3cc(=O)c4ccc(O)c(O)c4o3)cc2)C1 (stereo not drawn) [Example 5, 2-(4-(3,5-dimethylpiperidin-1-yl)phenyl)-7,8-dihydroxy-4H-chromen-4-one] | 213.254 ± 12.379 | 219.904 ± 6.954 | 96.797 ± 3.018 |
